Converted amounts (≈) assume the structure as drawn. Like-named read-outs stand apart in the source and are kept apart here.
Legend:
C. difficile = assay: MIC, CLSI broth microdilution M07; format: cell-based, Clostridium difficile
E coli = assay: MIC, CLSI broth microdilution M07; format: cell-based, Escherichia coli
S. epidemidis = assay: MIC, CLSI broth microdilution M07; format: cell-based, Staphylococcus epidermidis
S. pyogenes = assay: MIC, CLSI broth microdilution M07; format: cell-based, Streptococcus pyogenes
[1] = tested on: strains of Staphylococcus; assay: Bacterial growth in presence of first-example suspensions; format: cell-based, Staphylococcus spp.; conditions: first example: optically clear suspensions of 1 wt.% active component combined with 2% bile
Description: In these examples, the optically clear suspensions were combined with 2% bile when evaluating activity against various bacteria.

L. acidophilus = assay: MIC, CLSI broth microdilution M07; format: cell-based; conditions: Lactobacillus acidophilus; Table 2; active component range 0.08-8 mg/ml; >8 = no inhibitory effect
Lactobacillus spp. = assay: MIC, CLSI broth microdilution M07; format: cell-based
Mycobacterium = assay: MIC, CLSI broth microdilution; format: cell-based; conditions: Table 1; active component in compositions of first example; range 0.08-5 wt.%
S. mutans = assay: MIC, CLSI broth microdilution M07; format: cell-based, Streptococcus mutans
bacteria = conditions: background, cited from earlier work; for antibacterial / antimicrobial activity: compared with lauric acid
Candida = assay: MIC of fungi, CLSI broth microdilution M27; format: cell-based
S. aureus = assay: MIC, CLSI broth microdilution M07; format: cell-based, Staphylococcus aureus
M. bovis = assay: microbe, parasite or virus in culture; format: cell-based
S. mitis = assay: MIC, CLSI broth microdilution M07; format: cell-based, Streptococcus mitis
B. bifidum = assay: MIC, CLSI broth microdilution M07; format: cell-based; conditions: Bifidobacterium bifidum; Table 2; active component range 0.08-8 mg/ml; >8 = no inhibitory effect
Bifidobacterium = assay: MIC, CLSI broth microdilution M07; format: cell-based
C. albicans = assay: MIC of fungi, CLSI broth microdilution M27; format: cell-based; conditions: Candida albicans; Table 2; active component range 0.08-8 mg/ml
[2] = Clostridioides difficile, Table 2, active component range 0.08-8 mg/ml, read-out: MIC
[3] = Table 1, active component in compositions of first example, range 0.08-5 wt.%
[4] = Table 3, active component range 0.0009-8 μg/ml, values match chitosan-coated liposomes of third example
[5] = Escherichia coli, Table 2, active component range 0.08-8 mg/ml, >8 = no inhibitory effect, read-out: MIC
[6] = Table 1, active component in compositions of first example, range 0.08-5 wt.%, >>5% = no inhibitory effect
[7] = Streptococcus mutans, Table 2, active component range 0.08-8 mg/ml, read-out: MIC
[8] = Staphylococcus aureus, Table 2, active component range 0.08-8 mg/ml, read-out: MIC
[9] = Mycobacterium tuberculosis variant bovis

Compound: CCCCCCCCCCCC(=O)OC [ML, methyl laurate]
- MIC (C. difficile; [2]): 800 µg/mL (≈ 3.73 mM)
- MIC (C. difficile; [3]): 1%
- MIC (C. difficile; [4]): 0.0018%
- MIC (E coli; [5]): > 8000 µg/mL
- MIC (E coli; [6]): >>5%^
- MIC (E coli; [4]): >>5%
- MIC (S. epidemidis; [3]): 0.5%
- MIC (S. epidemidis; [4]): 0.0018%
- MIC (S. pyogenes; [3]): 0.5%
- MIC (S. pyogenes; [4]): 0.0018%
- effect on bacterial growth [1]: significantly retarded bacterial growth
- MIC (L. acidophilus): > 8000 µg/mL
- MIC (Lactobacillus spp.; [6]): >>5%^
- MIC (Lactobacillus spp.; [4]): >>5%
- MIC (Mycobacterium): 0.5%
- MIC (S. mutans; [7]): 800 µg/mL (≈ 3.73 mM)
- MIC (S. mutans; [3]): 0.5%
- MIC (S. mutans; [4]): 0.0018%
- antibacterial / antimicrobial activity (bacteria): some modest antibacterial activity in vitro
- MIC (Candida; [3]): 0.5%
- MIC (Candida; [4]): 0.0018%
- MIC (S. aureus; [8]): 800 µg/mL (≈ 3.73 mM)
- MIC (S. aureus; [3]): 0.5%
- MIC (S. aureus; [4]): 0.0018%
- MIC (M. bovis; [9]): 2000 µg/mL (≈ 9.33 mM)
- MIC (M. bovis; [4]): 0.0018%
- MIC (S. mitis; [3]): 0.5%
- MIC (S. mitis; [4]): 0.0018%
- MIC (B. bifidum): > 8000 µg/mL
- MIC (Bifidobacterium; [6]): >>5%^
- MIC (Bifidobacterium; [4]): >>5%
- MIC (C. albicans): < 80 µg/mL

Compound: CCCCCCCCCCCC(=O)OCC [EL, ethyl laurate]
- MIC (C. difficile; [2]): 800 µg/mL (≈ 3.5 mM)
- MIC (C. difficile; [3]): 0.5%
- MIC (C. difficile; [4]): 0.0018%
- MIC (E coli; [5]): > 8000 µg/mL
- MIC (E coli; [6]): >>5%^
- MIC (E coli; [4]): >>5%
- MIC (S. epidemidis; [3]): 0.5%
- MIC (S. epidemidis; [4]): 0.0018%
- MIC (S. pyogenes; [3]): 0.5%
- MIC (S. pyogenes; [4]): 0.0018%
- effect on bacterial growth [1]: completely bacteriostatic
- MIC (L. acidophilus): > 8000 µg/mL
- MIC (Lactobacillus spp.; [6]): >>5%^
- MIC (Lactobacillus spp.; [4]): >>5%
- MIC (Mycobacterium): 1%
- MIC (S. mutans; [7]): 800 µg/mL (≈ 3.5 mM)
- MIC (S. mutans; [3]): 0.5%
- MIC (S. mutans; [4]): 0.0018%
- activity relative to lauric acid (times less active) (bacteria): forty times less active
- antibacterial / antimicrobial activity (bacteria): little or no antimicrobial activity
- MIC (Candida; [3]): 0.5%
- MIC (Candida; [4]): 0.0018%
- MIC (S. aureus; [8]): 800 µg/mL (≈ 3.5 mM)
- MIC (S. aureus; [3]): 0.5%
- MIC (S. aureus; [4]): 0.0018%
- MIC (M. bovis; [9]): 2000 µg/mL (≈ 8.76 mM)
- MIC (M. bovis; [4]): 0.0018%
- MIC (S. mitis; [3]): 0.5%
- MIC (S. mitis; [4]): 0.0018%
- MIC (B. bifidum): > 8000 µg/mL
- MIC (Bifidobacterium; [6]): >>5%^
- MIC (Bifidobacterium; [4]): >>5%
- MIC (C. albicans): < 80 µg/mL
